Where a name gives a salt, the structure may show the parent alone.
Assays:
[1] = system: methacholine-induced ST elevation; assay: Preventive effect on methacholine-induced ST elevation (experimental model of variant angina); type: in vivo, Male SD strain rats; conditions: i.v.; for ST elevation, administn. of M (8 μg) after administn. of test compd. (at peak time): ± S.E.; for preventive effect on the ST elevation (in words): compared with diltiazem hydrochloride
Protocol: (2) Preventive effect on methacholine-induced ST elevation (effect in experimental model of variant angina)
The test was carried out according to the method of Sakai et al. [cf. J. Pharmacol. Methods, 5, 325-336 (1981)].
Male SD strain rats, weighing about 500 g, were anesthetized with 60 mg/kg (i.p.) of sodium pentobarbital. Lead II electrocardiogram was recorded. The ST elevation was produced with 8.0 μg of metacholine given into the coronary […] through the cannula inserted from the right carotid artery. The test compound, dissolved in 5% ethanol-physiological saline solution, was administered intravenously. The amplitude of ST elevation was measured by means of the computer 0.5, 5 and 10 minutes after the administration of the test compound and afterward at intervals of 10-minute. The effect of the test compound was evaluated by comparing the amplitude of ST elevation after administration of the test compound with that before the administration. Each group of 5 rats was used for each dose of the test compound.
The abbreviation M in the table represents metacholine.

[2] = in vivo; conditions: mouse, mortality for 7 days
From the text: STD-ddY strain mice were used in groups of 10 animals each.

[3] = system: vasopressin-induced ST depression; assay: Preventive effect on vasopressin-induced ST depression (experimental model of angina pectoris); type: in vivo, Male Donryu strain rats; parameters: key to Preventive effect on ST depression, 7 hours / Preventive effect on ST depression, 1 hour / Preventive effect on ST depression, 5 hours / Preventive effect on ST depression, 3 hours: +: Significantly different from vehicle control (P < 0.05); -: No significant difference; conditions: for Preventive effect on ST depression, 1 hour: 1 hour following administration; for Preventive effect on ST depression, 3 hours: 3 hours following administration; for Preventive effect on ST depression, 5 hours: 5 hours following administration; for Preventive effect on ST depression, 7 hours: 7 hours following administration; for preventive effect on the ST depression (in words): p.o., compared with diltiazem hydrochloride
Protocol: (1) Preventive effect on vasopressin-induced ST depression (effect in experimental model of angina pectoris)
The test was carried out according to the method of Hatano et al. [cf. Pharmacometrics, 19, 311-317 (1980)].
Male Donryu strain rats, weighing 130-180 g, were anesthetized with 60 mg/kg (i.p.) of sodium pentobarbital. Lead II electrocardiogram was recorded. The ST depression produced with 0.2 IU/kg (i.v.) of vasopressin was recorded at intervals of a given period for 5 minutes after the administration of vasopressin. The test compound, suspended in 0.5% aqueous tragacanth solution, was administered orally 1, 3, 5 and 7 hours before the administration of vasopressin. The amplitude of ST depression was measured by means of the computer, and the data were analyzed statistically by two-dimensional analysis between the control group and the treated group to evaluate the effect of the test compound. Each group of 5 rats was used for each dose of the test compound.

[4] = system: spontaneously hypertensive rats (SHR); assay: Antihypertensive activity in spontaneously hypertensive rats (SHR); type: in vivo, male SHR (Okamoto and Aoki strain) rats; conditions: for Peak time (time of maximum hypotensive effect): p.o.; for duration of antihypertensive activity (in words): compared with commercially available calcium antagonists
Protocol: The animals used were male SHR [Okamoto and Aoki strain; cf. Jap. Circul. […] Proc. Soc. […] The other end of the cannula was exposed through the skin on the back of the neck and fixed. After 1 to 4 days, the aortic cannula was connected to a pressure transducer (produced by Nihon Koden Co., Ltd., Japan; Model MP-4T), and conscious blood pressure was measured by direct method. On the day of the experiment, the blood pressure was measured for one hour prior to dosing. The test compound, suspended in 0.5% aqueous tragacanth solution, was administered orally at a volume of 3.0 ml/kg and the blood pressure was measured continuously for 5 hours.
The changes of blood pressure are expressed by the mean pressure calculated from the values of systolic and diastolic pressure.

[5] = 0.3 mg/kg, * P < 0.05, ** P < 0.01

SMILES | peak time (preventive effect on ST elevation) ([1]; 0.1 mg/kg) | ST elevation, administn. of M (8 μg) after administn. of test compd. (at peak time) ([1]; 0.1 mg/kg, * P < 0.05) | peak time (preventive effect on ST elevation) ([1]; 0.3 mg/kg) | ST elevation, administn. of M (8 μg) after administn. of test compd. (at peak time) [1, 5] | preventive effect on the ST elevation (in words) [1] | Preventive effect on ST depression, 1 hour ([3]; 3 mg/kg p.o.) | Preventive effect on ST depression, 3 hours ([3]; 3 mg/kg p.o.) | Preventive effect on ST depression, 1 hour ([3]; 10 mg/kg p.o.) | Preventive effect on ST depression, 5 hours ([3]; 10 mg/kg p.o.) | Preventive effect on ST depression, 7 hours ([3]; 30 mg/kg p.o.) | Peak time (time of maximum hypotensive effect) ([4]; 30 mg/kg) | maximum hypotensive effect (decrease compared with the initial blood pressure) ([4]; oral, 30 mg/kg) | time of maximum hypotensive effect ([4]; oral, 30 mg/kg) | further results
O=C(CCCN1CCN(c2ccccc2)CC1)NC1c2ccccc2CSc2ccccc21 (stereo not shown) [6(1), 11-[4-(4-phenyl-1-piperazinyl)butyrylamino]-6,11-dihydrodibenzo[b,e]thiepin] | 0.5 min | +0.15 ± 0.05 ΔmV | 5 min | +0.07 ± 0.01 ΔmV | preventive effect on the ST elevation comparable to that of diltiazem hydrochloride |  |  |  |  |  |  |  |  | 
O=C(CCCN1CCN(c2ccc(F)cc2)CC1)NC1c2ccccc2C=Cc2ccccc21 [79(3), 5-[4-[4-(4-fluorophenyl)-1-piperazinyl]butyrylamino]-5H-dibenzo[a,d]cycloheptene] | 5 min | +0.12 ± 0.02 ΔmV | 0.5 min | +0.04 ± 0.02 ΔmV | preventive effect on the ST elevation comparable to that of diltiazem hydrochloride | + | + | + | + | + |  |  |  | peak time (preventive effect on ST elevation) ([1]; 1.0 mg/kg): 0.5 min; ST elevation, administn. of M (8 μg) after administn. of test compd. (at peak time) ([1]; 1.0 mg/kg, ** P < 0.01): +0.08 ± 0.01 ΔmV; LD50 at 168 h ([2]; ip, single intraperitoneal administration): > 1000 mg/kg; LD50 at 168 h ([2]; single oral administration): > 4000 mg/kg; Preventive effect on ST depression, 5 hours ([3]; 3 mg/kg p.o.): -; Preventive effect on ST depression, 7 hours ([3]; 10 mg/kg p.o.): -; preventive effect on the ST depression (in words) [3]: more prolonged preventive effect on the ST depression than diltiazem hydrochloride
COC(=O)C1=C(C)NC(C)=C(C(=O)OC)C1c1ccccc1[N+](=O)[O-] [Nifedipine, reference compound] | 20 min | +0.08 ± 0.02 ΔmV |  |  |  |  |  |  |  |  |  |  |  | peak time (preventive effect on ST elevation) ([1]; 0.03 mg/kg): 10 min; ST elevation, administn. of M (8 μg) after administn. of test compd. (at peak time) ([1]; 0.03 mg/kg): +0.17 ± 0.02 ΔmV; Peak time (time of maximum hypotensive effect) ([4]; 3 mg/kg): 0.5 h; decrease compared with the initial blood pressure at 5 hours after dosing ([4]; oral): 7%; maximum hypotensive effect (decrease compared with the initial blood pressure) ([4]; oral, 3 mg/kg): 17%; time of maximum hypotensive effect ([4]; oral, 3 mg/kg): 0.5 h; Preventive effect on ST depression, 1 hour ([3]; 0.01 mg/kg p.o.): -; Preventive effect on ST depression, 3 hours ([3]; 0.01 mg/kg p.o.): -; Preventive effect on ST depression, 1 hour ([3]; 0.1 mg/kg p.o.): +; Preventive effect on ST depression, 3 hours ([3]; 0.1 mg/kg p.o.): -; Preventive effect on ST depression, 5 hours ([3]; 0.1 mg/kg p.o.): -
COc1ccc([C@@H]2Sc3ccccc3N(CCN(C)C)C(=O)[C@@H]2OC(C)=O)cc1 [Diltiazem hydrochloride, reference compound] | 10 min | +0.15 ± 0.03 ΔmV | 10 min | +0.06 ± 0.02 ΔmV |  | - | - | + | - | - | 0.333 h |  |  | peak time (preventive effect on ST elevation) ([1]; 1.0 mg/kg): 5 min; ST elevation, administn. of M (8 μg) after administn. of test compd. (at peak time) ([1]; 1.0 mg/kg, ** P < 0.01): +0.09 ± 0.02 ΔmV; Peak time (time of maximum hypotensive effect) ([4]; 50 mg/kg): 0.333 h; decrease compared with the initial blood pressure at 5 hours after dosing ([4]; oral): 3%; reduction of blood pressure (in words) ([4]; oral, 30 mg/kg): did not reduce significantly blood pressures; maximum effect (decrease compared with the initial blood pressure) ([4]; oral, 50 mg/kg): 13%; time of maximum effect ([4]; oral, 50 mg/kg): 20 min; Preventive effect on ST depression, 3 hours ([3]; 10 mg/kg p.o.): +; Preventive effect on ST depression, 1 hour ([3]; 30 mg/kg p.o.): +; Preventive effect on ST depression, 5 hours ([3]; 30 mg/kg p.o.): +
Cc1ccc2c(c1)C(NC(=O)CCCN1CCN(c3ccc(F)cc3)CC1)c1ccccc1CS2 (stereo not shown) [2(3), 11-[4-[4-(4-fluorophenyl)-1-piperazinyl]butyrylamino]-2-methyl-6,11-dihydrodibenzo[b,e]thiepin] | 5 min | +0.19 ± 0.05 ΔmV | 0.5 min | +0.13 ± 0.02 ΔmV | preventive effect on the ST elevation comparable to that of diltiazem hydrochloride | - | - | + | + | + | 4 h | 12-14% | 4 to 5 h | Preventive effect on ST depression, 5 hours ([3]; 3 mg/kg p.o.): -; Preventive effect on ST depression, 7 hours ([3]; 3 mg/kg p.o.): -; Preventive effect on ST depression, 3 hours ([3]; 10 mg/kg p.o.): +; Preventive effect on ST depression, 7 hours ([3]; 10 mg/kg p.o.): -; Preventive effect on ST depression, 1 hour ([3]; 30 mg/kg p.o.): +; preventive effect on the ST depression (in words) [3]: more prolonged preventive effect on the ST depression than diltiazem hydrochloride
Cc1ccc2c(c1)C(NC(=O)CCCN1CCN(c3ccc(F)cc3)CC1)c1ccccc1CS2 (stereo not shown) [2(1), 11-[4-[4-(4-fluorophenyl)-1-piperazinyl]butyrylamino]-2-methyl-6,11-dihydrodibenzo[b,e]thiepin] |  |  |  |  |  |  |  |  |  |  |  |  |  | duration of antihypertensive activity (in words) [4]: longer duration of antihypertensive activity than that of the commercially available calcium antagonists
O=C(CCCN1CCN(c2ccc(F)cc2)CC1)NC1c2ccccc2CSc2cc(F)ccc21 (stereo not shown) [Example 42, 3-fluoro-11-[4[4-(4-fluorophenyl)-1-piperazinyl]butyrylamino]-6,11-dihydrodibenzo[b,e]thiepin] |  |  |  |  |  |  |  |  |  |  | 4 h | 12-14% | 4 to 5 h | 
O=C(CCCN1CCN(c2ccc(F)cc2)CC1)NC1c2ccccc2CSc2ccccc21 (stereo not shown) [Example 1(1), 11-[4-[4-(4-fluorophenyl)-1-piperazinyl]butyrylamino]-6,11-dihydrodibenzo[b,e]thiepin] |  |  |  |  |  |  |  |  |  |  |  |  |  | duration of antihypertensive activity (in words) [4]: longer duration of antihypertensive activity than that of the commercially available calcium antagonists
O=C(CCCN1CCN(c2ccc(F)cc2)CC1)NC1c2ccccc2CS(=O)(=O)c2ccccc21 (stereo not shown) [Example 138, 11-[4-[4-(4-fluorophenyl)-1-piperazinyl]butyrylamino]-6,11-dihydrodibenzo[b,e]thiepin-5,5-dioxide] |  |  |  |  |  |  |  |  |  |  | 5 h | 12-14% | 4 to 5 h | 
O=C(CCCN1CCN(c2ccc(F)cc2)CC1)NC1c2ccccc2C[S+]([O-])c2ccccc21 (single isomer, unassigned) [Example 136, 11-[4-[4-(4-fluorophenyl)-1-piperazinyl]butyrylamino]-6,11-dihydrodibenzo[b,e]thiepin-5-oxide-A] |  |  |  |  |  |  |  |  |  |  | 5 h | 12-14% | 4 to 5 h | 
